Columns and labels:
GLP-1R = GLP-1R (Homo sapiens, UniProt P43220); assay: Inverted Gini coefficients for pathway selectivity (efficacy, potency) per compartment
Method: Inverted Gini coefficients depict differences in drug-induced pathway selectivity for efficacy and potency. Inverted Gini coefficients were calculated to compare the similarities among the 15 tested pathways (Gs, Gq, G11 , G14, G15, G12, G13, Gi1, Gi2, Gi3, GoA, GoB, Gz, GRK/Gb g and bARR) for efficacy (a) and potency (b) across the four compartments included in this study (PM, EE, GA, ER) where 1 represents equality and 0 represents dissimilarity.

[1] = test system: GLP-1R-expressing HEK293 cells (phosphoproteome); assay: Phosphoproteomics, GLP-1R-transfected cells, 30 min (experiment 2); type: cell-based, human; conditions: GLP transfection, 1 μM
Method: P values were calculated by a two-sided unpaired t-test.
HEK293 cells (350,000 cells/mL) were transfected in suspension using 3 μg of linear PEI (MW 25,000) per 1 μg of plasmid DNA and seeded onto poly-D-lysine-coated 60 mm dishes at a density of 1,750,000 cells per dish. After a 24-h incubation, cells were washed twice with PBS and placed in starvation media (DMEM with penicillin/streptomycin). After a 48-h incubation, cells were washed twice with HBSS and maintained in the same buffer. […] Cell extracts were prepared as previously described[64]–[66]. In short, 200 μL of the lysis buffer preheated at 95 °C (4% sodium dodecyl sulfate in 50 mM Tris adjusted to pH 8.5) was added to the cells. The samples were then denatured at 95 °C for 10 min, placed on ice and then sonicated using a probe sonicator (3 sec on, 3 sec off pulse, 1 min, 30% amplitude) (Branson). Lysate protein concentration was determined using the Pierce bicinchoninic acid assay kit (Thermo Fisher Scientific) according to the manufacturer’s instructions. The lysates were reduced using 5 mM dithiothreitol for 1 h at room temperature and alkylated using 15 mM iodoacetamide for 1 h at room temperature in the dark. Proteins were precipitated and digested on beads using MagReSyn Amine magnetic beads (ReSyn Biosciences) according to the manufacturer’s instructions. Protein digestion was conducted overnight at 37 °C with lysyl endopeptidase (LysC, Wako) (1:150 LysC/protein, w/w) and trypsin (1:300 trypsin/protein, w/w). 20% TFA, 2 M glycolic acid in 80% ACN were added to the samples at a 1:1 ratio for phosphopeptide enrichment using MagReSyn TiO2 magnetic beads (ReSyn Biosciences) according to the manufacturer’s instructions. The enriched phosphopeptides were dried overnight in a SpeedVac, resuspended into 5% formic acid (FA), desalted using StageTip (Thermo Fisher Scientific) according to the manufacturer’s instructions and dried in a SpeedVac. The experiment was performed in biological triplicates.
All parameters and settings regarding the acquisition of the proteomics data can be found in Supplementary Data 11, 12. For data acquisition, the instrument was set to peptide mode, with a trapping pressure set as low (2mTorr). An EASY-Spray Source (Thermo Fisher Scientific) was used and the column temperature was maintained with the integrated, temperature-controlled heater at 55 °C throughout the experiment. For the data presented in Fig. 5d, the column was heated at 50 °C following the manufacturer’s instructions (IonOpticks).
Acquired raw files were converted to mzML format by MSConvert (version 3.0.21258)[67] applying peak picking of the mass spectra with the vendor-provided algorithm (Thermo Fisher Scientific). The mzML files were analyzed using the FragPipe GUI v18 for both library and DIA search. […] Trypsin with up to 2 missed cleavages was set as digestion enzyme, oxidation of methionine, acetylation of the N-terminus and phosphorylation on serine, threonine and tyrosine (maximal occurrence was set to three) were set as variable modifications. Carbamidomethylation of cysteine residues was set as a fixed modification. Peptide length was restricted to 7 to 50 amino acids, and 500 to 5000 Da. […] DIA files were analyzed by DIA-NN 1.8.1[71], [72] using the previously generated library and monitor-command mode. Peptide quantification was performed based on the fragment elution profiles from the MS2 level (area under the curve). […]

GLP-1R, sequence (P43220 24-463): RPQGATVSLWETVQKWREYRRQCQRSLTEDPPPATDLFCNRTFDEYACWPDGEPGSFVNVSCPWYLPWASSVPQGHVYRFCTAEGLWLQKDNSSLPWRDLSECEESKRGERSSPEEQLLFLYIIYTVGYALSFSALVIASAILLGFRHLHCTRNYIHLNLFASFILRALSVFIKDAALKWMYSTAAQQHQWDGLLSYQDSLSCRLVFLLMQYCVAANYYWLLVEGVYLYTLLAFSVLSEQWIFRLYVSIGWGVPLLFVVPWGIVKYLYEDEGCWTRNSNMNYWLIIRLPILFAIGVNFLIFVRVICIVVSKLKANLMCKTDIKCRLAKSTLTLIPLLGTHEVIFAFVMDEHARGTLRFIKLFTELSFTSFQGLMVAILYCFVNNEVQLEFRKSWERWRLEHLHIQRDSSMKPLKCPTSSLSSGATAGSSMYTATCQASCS

N#Cc1ccc(COc2cccc(C3CCN(Cc4nc5ccc(C(=O)O)cc5n4C[C@@H]4CCO4)CC3)n2)c(F)c1 [Danuglipron] was tested, and the “1 - Gini” value (GLP-1R; Early endosomes, Supplementary Fig. 18a) was 0.2929, the “1 - Gini” value (GLP-1R; Early endosomes, Supplementary Fig. 18b) was 0.7742 and the “1 - Gini” value (GLP-1R; Endoplasmic reticulum, Supplementary Fig. 18a) was 0.09. For the same compound, the “1 - Gini” value (GLP-1R; Endoplasmic reticulum, Supplementary Fig. 18b) was 0.8902, the “1 - Gini” value (GLP-1R; Golgi apparatus, Supplementary Fig. 18a) was 0.1115 and the “1 - Gini” value (GLP-1R; Golgi apparatus, Supplementary Fig. 18b) was 0.854. For the same compound, the “1 - Gini” value (GLP-1R; Plasma membrane, Supplementary Fig. 18a) was 0.403, the “1 - Gini” value (GLP-1R; Plasma membrane, Supplementary Fig. 18b) was 0.7941 and the “log2.foldchange, PABPN1 S19” value ([1]; vs time-matched vehicle, p […], n = 3) was 1.128. For the same compound, the “log2.foldchange, VPS51 S13” value ([1]; vs vehicle, p 0.15884, n = 3) was -0.5399, the “log2.foldchange, EIF3J S20” value ([1]; vs vehicle, p 0.656982, n = 3) was -0.08041 and the “log2.foldchange, EIF3J S11” value ([1]; vs vehicle, p 0.693473, n = 3) was -0.5463. For the same compound, the “log2.foldchange, VPS51 S18” value ([1]; vs vehicle, p 0.842243, n = 3) was 0.02396.

— publication PMC10562414, “GLP-1R signaling neighborhoods associate with the susceptibility to adverse drug reactions of incretin mimetics” (Nature Communications, 2023)
